Source: patent publication US10654814B2, “Bicyclic hydroxamic acids useful as inhibitors of mammalian histone deacetylase activity” (KANCERA AB, priority 2015, dated 2020)
Like-named read-outs stand apart in the source and are kept apart here.

How the values were obtained:
[1] = system: U266 (multiple myeloma) cells; assay: CellTiter-Blue cell viability assay, U266; assay type: cell-based; details: Homo sapiens, U-266; 72 hours of treatment
Experimental: (§1) Method for Measurement of Cell Viability
(§2) The CellTiter-Blue® Cell Viability Assay (Promega) provides a homogeneous, fluorometric method for estimating the number of viable cells present in multi-well plates. The assay uses the indicator dye resazurin to measure the metabolic capacity of cells. Viable cells retain the ability to reduce resazurin into resorufin, which is highly fluorescent.
(§3) Stock solutions (10 mM in DMSO) of compounds were serially diluted 1:2 in 11 concentrations. 50 nL/well (10 mM compound stock in DMSO) was acoustically dispensed in 384-well assay plates with an acoustic dispenser (EDC Biosystems ATS-100AV). Final starting concentration in the assay was 20 μM (0.2% DMSO) for test compounds. The following cell-lines (and origin) have been primarily used: PaCa2 (pancreatic), U266 (multiple myeloma), AMO-1 (plasmacytoma), and MDA-MB-231 (breast adenocarcinoma). PBMCs (peripheral blood mononuclear cells) from healthy donors were used as control cells. Cells were seeded in assay plates (384-well black/clear, Greiner #781091) pre-dispensed with compounds, 25 μL/well, and cultured for 72 hours. After 72 hours, Celltiter Blue reagent (Promega # G8081) was diluted 1:10 with PBS and then added to wells (5 μL/well). The plates were incubated for 2 hours following addition of reagent. The plates were read in an EnVision fluorescence reader (PerkinElmer) with Ex544 nm/Em590 nm. Results were calculated as % cell viability compared to background (cells treated with 0.2% DMSO).

[2] = system: MDA-MB-231 (breast adenocarcinoma) cells; assay: CellTiter-Blue cell viability assay, MDA-MB-231; assay type: cell-based; details: Homo sapiens, 72 hours of treatment
Experimental: as §1, §2, §3

[3] = system: AMO-1 (plasmacytoma) cells; assay: CellTiter-Blue cell viability assay, AMO-1; assay type: cell-based; details: Homo sapiens, AMO1; 72 hours of treatment
Experimental: as §1, §2, §3

HDAC6 = HDAC6 (Homo sapiens (Human), UniProt Q9UBN7); assay: HDAC6 in vitro enzymatic assay (fluorescence); assay type: biochemical
HDAC6, sequence (Q9UBN7 whole entry): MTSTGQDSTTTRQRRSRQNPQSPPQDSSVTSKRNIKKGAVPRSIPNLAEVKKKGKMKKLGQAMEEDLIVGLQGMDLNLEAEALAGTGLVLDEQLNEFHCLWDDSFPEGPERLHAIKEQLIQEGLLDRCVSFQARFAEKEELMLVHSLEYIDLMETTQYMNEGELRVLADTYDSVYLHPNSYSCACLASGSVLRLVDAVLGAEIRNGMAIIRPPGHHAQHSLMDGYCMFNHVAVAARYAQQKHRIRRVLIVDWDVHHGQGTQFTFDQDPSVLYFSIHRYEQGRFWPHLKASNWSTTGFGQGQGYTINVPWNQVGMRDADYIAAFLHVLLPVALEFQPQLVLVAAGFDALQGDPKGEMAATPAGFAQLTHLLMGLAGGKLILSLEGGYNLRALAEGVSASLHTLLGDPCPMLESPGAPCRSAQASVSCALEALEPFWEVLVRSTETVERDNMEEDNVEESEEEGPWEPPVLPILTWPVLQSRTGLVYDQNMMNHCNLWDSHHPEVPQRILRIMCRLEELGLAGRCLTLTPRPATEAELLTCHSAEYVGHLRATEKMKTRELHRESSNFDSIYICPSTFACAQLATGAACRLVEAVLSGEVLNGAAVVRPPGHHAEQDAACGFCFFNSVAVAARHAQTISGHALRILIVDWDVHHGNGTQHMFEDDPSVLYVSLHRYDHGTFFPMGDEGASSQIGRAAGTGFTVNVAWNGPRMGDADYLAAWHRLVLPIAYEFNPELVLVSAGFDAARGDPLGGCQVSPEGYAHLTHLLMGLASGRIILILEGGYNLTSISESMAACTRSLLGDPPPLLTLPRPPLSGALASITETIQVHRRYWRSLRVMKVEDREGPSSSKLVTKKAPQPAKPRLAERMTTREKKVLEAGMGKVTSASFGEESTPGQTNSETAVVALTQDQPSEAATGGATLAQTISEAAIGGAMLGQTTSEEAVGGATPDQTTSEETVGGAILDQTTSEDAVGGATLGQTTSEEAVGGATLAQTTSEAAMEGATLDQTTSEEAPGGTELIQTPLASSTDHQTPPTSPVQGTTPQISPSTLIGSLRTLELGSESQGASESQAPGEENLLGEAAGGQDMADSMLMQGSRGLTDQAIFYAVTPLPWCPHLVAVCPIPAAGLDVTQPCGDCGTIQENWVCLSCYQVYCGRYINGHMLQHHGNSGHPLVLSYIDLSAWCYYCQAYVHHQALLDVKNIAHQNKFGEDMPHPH
Outline: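 Fluorogenic HDAC substrate reactions contained assay buffer, BSA and compound, followed by developer. Fluorescence was read at ex 360/em 460 nm. Compounds were tested as 11-point 1:3 dilutions from a top of 200 μM for HDAC1, 2 and 3, and from 2 μM for HDAC6, in duplicate.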

PaCa2 (pancreatic) cells = assay: CellTiter-Blue cell viability assay, PaCa2; assay type: cell-based; details: PaCa-2; 72 hours of treatment
Experimental: as §1, §2, §3

[4] = system: PBMCs (peripheral blood mononuclear cells) from healthy donors; assay: CellTiter-Blue cell viability assay, healthy PBMC; assay type: cell-based; details: 72 hours of treatment
Experimental: as §1, §2, §3

HDAC1 = HDAC1 (Homo sapiens (Human), UniProt Q13547); assay: HDAC1 in vitro enzymatic assay (fluorescence); assay type: biochemical; details: Table 4 selectivity profiling
HDAC1, sequence (Q13547 whole entry): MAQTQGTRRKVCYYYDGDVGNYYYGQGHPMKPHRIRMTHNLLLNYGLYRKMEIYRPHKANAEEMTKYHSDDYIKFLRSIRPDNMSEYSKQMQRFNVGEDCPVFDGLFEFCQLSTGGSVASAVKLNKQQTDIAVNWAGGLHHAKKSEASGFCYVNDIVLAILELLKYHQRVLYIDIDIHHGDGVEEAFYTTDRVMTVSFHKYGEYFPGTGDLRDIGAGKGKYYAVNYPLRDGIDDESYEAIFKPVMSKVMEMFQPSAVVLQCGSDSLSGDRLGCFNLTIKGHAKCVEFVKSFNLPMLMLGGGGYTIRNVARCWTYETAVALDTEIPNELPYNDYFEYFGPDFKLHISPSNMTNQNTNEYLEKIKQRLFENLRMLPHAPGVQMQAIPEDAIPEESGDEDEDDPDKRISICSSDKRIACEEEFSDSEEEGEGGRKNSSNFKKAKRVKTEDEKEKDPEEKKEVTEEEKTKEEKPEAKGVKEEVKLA
Experimental: (§4) Biological Tests Method for Measurement of Enzymatic Activity of HDACs Materials & Methods
(§5) All Examples were tested in HDAC1,2,3,6 and 8 in vitro enzymatic assays. The assay principle is well known (Hauser et al. 2009, Bradner et al. 2010) and all necessary reagents like enzymes, substrates, developer and reference compounds are commercially available (see e.g. BPS Biosciences http://www.bpsbioscience.com/). Stock solutions (10 mM in DMSO) of compounds were serially diluted 1:3 in 11 concentrations with a top concentration of 200 μM for HDAC1,2,3 and 2 μM for HDAC6 and HDAC8. The enzymatic reactions were conducted in a mixture containing assay buffer, bovine serum albumin, HDAC substrate, and a test compound. After enzymatic reaction, developer was added and after an additional incubation time, fluorescence intensity was measured at an excitation wavelength of 360 nm and an emission wavelength of 460 nm. All experiments were performed in duplicate.

HDAC2 = HDAC2 (Homo sapiens (Human), UniProt Q92769); assay: HDAC2 in vitro enzymatic assay (fluorescence); assay type: biochemical; details: Table 4 selectivity profiling
HDAC2, sequence (Q92769 whole entry): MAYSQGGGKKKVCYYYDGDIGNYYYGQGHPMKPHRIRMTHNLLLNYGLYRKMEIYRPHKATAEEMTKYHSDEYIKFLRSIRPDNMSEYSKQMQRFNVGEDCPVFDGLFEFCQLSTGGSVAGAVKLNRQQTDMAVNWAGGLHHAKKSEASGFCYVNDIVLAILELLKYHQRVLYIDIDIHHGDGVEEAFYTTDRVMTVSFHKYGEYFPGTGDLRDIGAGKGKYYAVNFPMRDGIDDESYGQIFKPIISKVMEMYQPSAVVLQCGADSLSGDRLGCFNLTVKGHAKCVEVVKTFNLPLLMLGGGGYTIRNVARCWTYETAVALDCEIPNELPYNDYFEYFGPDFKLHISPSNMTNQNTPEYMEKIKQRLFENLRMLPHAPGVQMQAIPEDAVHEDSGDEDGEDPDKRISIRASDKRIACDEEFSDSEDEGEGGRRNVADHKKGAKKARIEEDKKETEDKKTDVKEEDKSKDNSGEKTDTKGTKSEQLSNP
Experimental: as §4, §5

HDAC8 = HDAC8 (Homo sapiens (Human), UniProt Q9BY41); assay: HDAC8 in vitro enzymatic assay (fluorescence); assay type: biochemical; details: Table 4 selectivity profiling
HDAC8, sequence (Q9BY41 whole entry): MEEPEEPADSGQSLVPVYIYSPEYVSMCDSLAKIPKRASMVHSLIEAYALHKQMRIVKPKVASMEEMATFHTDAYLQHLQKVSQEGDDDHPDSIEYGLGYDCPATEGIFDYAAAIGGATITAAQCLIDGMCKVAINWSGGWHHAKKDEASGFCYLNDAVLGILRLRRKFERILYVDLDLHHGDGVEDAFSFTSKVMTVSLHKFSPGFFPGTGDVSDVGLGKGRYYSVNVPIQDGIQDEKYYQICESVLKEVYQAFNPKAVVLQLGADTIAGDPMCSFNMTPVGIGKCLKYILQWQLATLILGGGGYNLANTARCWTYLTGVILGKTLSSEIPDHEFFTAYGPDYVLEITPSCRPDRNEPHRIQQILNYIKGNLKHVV
Experimental: as §4, §5

HDAC3 = HDAC3 (Homo sapiens (Human), UniProt O15379); assay: HDAC3 in vitro enzymatic assay (fluorescence); assay type: biochemical; details: Table 4 selectivity profiling
HDAC3, sequence (O15379 whole entry): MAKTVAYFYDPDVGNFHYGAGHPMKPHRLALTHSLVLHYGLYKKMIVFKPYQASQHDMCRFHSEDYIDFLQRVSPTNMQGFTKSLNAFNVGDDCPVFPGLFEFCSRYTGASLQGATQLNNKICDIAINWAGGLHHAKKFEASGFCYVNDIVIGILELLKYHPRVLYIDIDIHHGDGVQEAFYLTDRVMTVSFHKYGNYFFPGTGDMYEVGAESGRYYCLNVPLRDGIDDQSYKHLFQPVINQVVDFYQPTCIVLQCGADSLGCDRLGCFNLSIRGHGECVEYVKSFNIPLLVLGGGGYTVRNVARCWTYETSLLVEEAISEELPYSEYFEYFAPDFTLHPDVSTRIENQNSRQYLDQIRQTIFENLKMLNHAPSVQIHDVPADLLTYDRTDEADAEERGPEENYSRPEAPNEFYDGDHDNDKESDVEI
HDAC3, sequence (Q9Y618 395-489 partner): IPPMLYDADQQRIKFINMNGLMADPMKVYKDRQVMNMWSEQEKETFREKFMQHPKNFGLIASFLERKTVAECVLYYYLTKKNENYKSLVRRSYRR
Experimental: as §4, §5

[5] = Table 3, read-out: IC50 (nM) for inhibition of HDAC6
[6] = Table 4 selectivity profiling, read-out: IC50 (nM) HDAC6

| IC50 [1] [µM] | IC50 [2] [µM] | IC50 [3] [µM] | IC50 (HDAC6; [5]) [nM] | IC50 (HDAC1) [nM] | IC50 (HDAC2) [nM] | IC50 (HDAC8) [nM] | IC50 (HDAC3) [nM] | IC50 (HDAC6; [6]) [nM] | SMILES | IC50 (PaCa2 (pancreatic) cells) [µM] | IC50 [4] [µM] |
| --- | --- | --- | --- | --- | --- | --- | --- | --- | --- | --- | --- |
| 0.58 | 1.2 | 0.46 | 7 | – | – | – | – | – | CC(C)c1ccc(-c2cc3ccc(C(=O)NO)cc3o2)cc1 [Example 112, N-Hydroxy-2-[4-(1-methylethyl)phenyl]-1-benzofuran-6-carboxamide] | 0.89 | > 20 |
| 0.49 | 0.81 | 0.38 | 5 | 1100 | 19000 | 1000 | 410 | 5 | CC(C)(C)c1ccc(-c2nc3cc(C(=O)NO)ccc3o2)cc1 [Example 4, 2-(4-tert-butylphenyl)-N-hydroxy-1,3-benzoxazole-5-carboxamide] | 0.75 | > 20 |
| 0.67 | 1.2 | 0.67 | – | – | – | – | – | – | CC(C)c1ccc(-c2cc3cc(C(=O)NO)ccc3o2)cc1 [Example 111, N-Hydroxy-2-[4-(1-methylethyl)phenyl]-1-benzofuran-5-carboxamide] | 1.3 | > 20 |
| 0.42 | 1.1 | 0.36 | 37 | 26000 | 14000 | 1100 | 10000 | 14 | CC(C)c1ccc(-c2cc3ccc(C(=O)NO)cc3s2)cc1 [Example 88, N-Hydroxy-2-[4-(1-methylethyl)phenyl]-1-benzothiophene-6-carboxamide] | 0.82 | > 20 |
| 0.91 | 1.4 | 0.9 | – | 6000 | 76000 | 800 | 1700 | 38 | O=C(NO)c1ccc2oc(-c3ccc(OC(F)(F)F)cc3)nc2c1 [Example 9, N-hydroxy-2-[4-(trifluoromethoxy)phenyl]-1,3-benzoxazole-5-carboxamide] | 1.9 | > 20 |
| 1.2 | 0.98 | 2.3 | – | – | – | – | – | – | COc1ccc(F)cc1-c1ccc(-c2nc3cc(C(=O)NO)ccc3o2)c(F)c1 [Example 193, 2-(3,5′-difluoro-2′-methoxybiphenyl-4-yl)-N-hydroxy-1,3-benzoxazole-5-carboxamide] | 2.2 | > 20 |
| 0.89 | 3.1 | 0.62 | – | > 200000 | > 200000 | > 2000 | 820 | 3 | COc1ccc(-c2ccc(-c3nc4cc(C(=O)NO)ccc4o3)cc2)cn1 [Example 27, N-hydroxy-2-[4-(6-methoxypyridin-3-yl)phenyl]-1,3-benzoxazole-5-carboxamide] | 0.81 | > 20 |
| 1.7 | 1.2 | 0.66 | – | – | – | – | – | – | CC(C)c1ccc(-c2cc3ccc(C(=O)NO)cc3[nH]2)cc1 [Example 59, N-Hydroxy-2-[4-(1-methylethyl)phenyl]-1H-indole-6-carboxamide] | 1.4 | > 20 |
| 0.94 | 1.1 | 0.64 | 28 | 5600 | > 200000 | 700 | 1800 | 28 | O=C(NO)c1ccc2oc(-c3ccc(-c4ccccc4F)cc3)nc2c1 [Example 21, 2-(2′-Fluorobiphenyl-4-yl)-N-hydroxy-1,3-benzoxazole-5-carboxamide] | 1.2 | > 20 |
| 1.1 | 1.7 | 0.61 | 5 | – | – | – | – | – | COc1ccncc1-c1ccc(-c2nc3cc(C(=O)NO)ccc3o2)cc1 [Example 26, N-hydroxy-2-[4-(4-methoxypyridin-3-yl)phenyl]-1,3-benzoxazole-5-carboxamide] | 1.1 | > 20 |
| 1.1 | 1.8 | 0.81 | – | – | – | – | – | – | CC(C)c1ccc(-c2nc3ccc(C(=O)NO)cc3s2)cc1 [Example 61] | 0.9 | > 20 |
| 0.48 | 1.8 | 0.34 | – | 1800 | 9400 | 410 | 930 | 22 | CC(C)(C)c1ccc(-c2nc3cc(C(=O)NO)ccc3s2)cc1 [Example 77, 2-(4-tert-butylphenyl)-N-hydroxy-1,3-benzothiazole-5-carboxamide] | 1.4 | > 20 |
| 0.49 | 0.4 | 0.41 | 13 | 900 | 5500 | 28 | 500 | 3 | CC(C)c1ccc(-c2nc3cc(C(=O)NO)ccc3s2)cc1 [Example 75, N-Hydroxy-2-[4-(1-methylethyl)phenyl]-1,3-benzothiazole-5-carboxamide] | 1.3 | > 20 |
| 0.64 | 0.41 | 0.47 | 70 | – | – | – | – | – | O=C(NO)c1ccc2sc(-c3ccc(OC(F)(F)F)cc3)cc2c1 [Example 102, N-hydroxy-2-[4-(trifluoromethoxy)phenyl]-1-benzothiophene-5-carboxamide] | 2.48 | > 20 |
| 0.43 | 0.81 | 0.44 | 55 | 100000 | 90000 | > 2000 | 90000 | 26 | CC(C)c1ccc(-c2cc3cc(C(=O)NO)ccc3s2)cc1 [Example 89, N-Hydroxy-2-[4-(1-methylethyl)phenyl]-1-benzothiophene-5-carboxamide] | 0.68 | > 20 |
| 0.62 | 0.75 | 0.38 | – | 5600 | 28000 | 700 | 1800 | 28 | COc1ncccc1-c1ccc(-c2nc3cc(C(=O)NO)ccc3o2)cc1 [Example 28, N-hydroxy-2-[4-(2-methoxypyridin-3-yl)phenyl]-1,3-benzoxazole-5-carboxamide] | 1 | > 20 |
| 0.42 | 0.42 | 0.37 | – | – | – | – | – | – | CC(C)Oc1ccc(-c2cc3cc(C(=O)NO)ccc3s2)cc1Cl [Example 107, 2-[3-chloro-4-(1-methylethoxy)phenyl]-N-hydroxy-1-benzothiophene-5-carboxamide] | 1.3 | > 20 |
| 0.55 | 0.6 | 0.49 | – | – | – | – | – | – | CC(C)(C)c1ccc(-c2cc3cc(C(=O)NO)ccc3s2)cc1 [Example 103, 2-(4-tert-butylphenyl)-N-hydroxy-1-benzothiophene-5-carboxamide] | 1.46 | > 20 |
| 0.58 | 0.81 | 0.5 | 28 | – | – | – | – | – | O=C(NO)c1ccc2sc(-c3cccc(C(F)(F)F)c3)cc2c1 [Example 90, N-hydroxy-2-[3-(trifluoromethyl)phenyl]-1-benzothiophene-5-carboxamide] | 0.8 | > 20 |
